The subject of one assay is Raji lymphoma cells. Particulars: mouse. The source says:
(§1) Both CAR and luciferase were transduced into activated T cells and transfer into NSG mice that have been injected with Raji lymphoma cells.

In another assay the test system is CAR-T cells.
Text: as §1

In a further assay the test system is A2ESO TCR-T cells. Here is the method:
Activated human T cells were transduced on day 2 and day 3 with A2ESO TCR viruses that were packaged by PG13-A2ESO TCR clone. […] To investigate the functional change of A2ESO TCR-T cells after 2-PCPA treatment, intracellular staining (ICS) was performed to check the expression of effector cytokines, targeting IL-2, IFN-γ and TNF-α. […] Another key feature of less-differentiated T cell is increased oxidative metabolism and mitochondrial respiratory capacity.

The subject of assay [1] is MDA-MB-231 cells expressing HLA-A2 and NY-ESO-1. The settings on record: mouse. An excerpt: A breast cancer model was established using MDA-MB-231 cells expressing HLA-A2 and NY-ESO-1 antigen in 8 weeks old NOD-scid IL2Rγnull (NSG) mice.
Assay [2] deals with A2ESO TCR-transduced CD4^+ T cells. Here is the method:
It was hypothesized that the improvement killing ability of CD4^+ T cells due to ThPOK knockdown is procedure of T-cell reprogramming via epigenetic regulation. To distinguish how ThPOK reprogrammed CD4^+ T cells to cytolytic CD4^+ T cells, a screening of A2ESO TCR-transduced CD4^+ T cells treated by various epigenetic inhibitors was performed.

The next assay relates to primary human T cells. Particulars: OKT3 activated T cells, day 12, CD45RO^− CCR7^+ CD62L^+.
For another assay, the system named is 136TIL. Description: Intracellular staining of IFN-γ after neoantigen peptide stimulation, 136TIL. The format is cell-based, human. An excerpt:
Among them, MAPK9 and ANKIB1 neoantigen-specific CD4^+ T cells accounted for 14.3% and 5.2% in the total T cell population, which accounted for 58% and 21% in the total tumor-reactive CD4^+ T cell population, respectively (FIG. 11B). By contrast, other neoantigen-specific CD4^+ T cells accounted for only a small percentage of T cells in the total T cell population (FIG. 11A). Since HHAT is only one MHC-I neoantigen, it was shown that HHAT neoantigen-specific CD8^+ T cells accounted for 10.6% in the total T cell population when stimulation with HHAT peptide (FIG. 11A), which accounted for 73% in the total tumor-reactive CD8^+ T cell population (FIG. 11B).
T cells were stimulated by various in vitro methods, such as tumor cells, peptides or DNA encoding neoantigens, etc. and induced to release cytokines. Stimulated T cells were resuspended in 100 μl of Cytofix/Cytoperm solution (BD Biosciences) per well for microwell plates (or 250 μl for tubes) and incubated for 20 min at 4° C. for cell fixation. Fixed cells were permeabilized by washing twice in 1× Perm/Wash buffer (BD Biosciences). Then the fixed/permeabilized cells were thoroughly resuspended in 50 μl of 1× Perm/Wash buffer containing 1 μl of phycoerythrin (PE)-conjugated IFN-γ antibody (Thermo Fisher Scientific) and incubate at 4° C. for 30 min in the dark. After that the cells were washed twice with 1× Perm/Wash buffer and ready for flow cytometric analysis.

Assay [3] relates to CD8^+ T cells isolated from 136 TILs. In words: T-cell reactivity assay (ELISA): TMGs in MHC-I expressing Cos7 cells. The format is cell-based, human. The settings on record: Cos7-A1, Cos7-B8, Cos7-C7 cells. The source says: To identify MHC-I neoantigens, MHC-I expressing Cos7 cells were transfected (Cos7-A1, Cos7-B8 and Cos7-C7) cells with 35 TMGs, respectively, followed by adding CD8^+ T cells isolated from 136 TILs. […] To exclude the possibility that other MHC-I and II molecules could also present neoantigens for T cell recognition, fibroblasts were generated from patient #136 tumor samples and used as APCs to express all MHC I and II molecules after IFN-γ pretreatment (FIG. 9C). The IFN-γ—pretreated fibroblasts were electroporated with in IVT mRNA of 136 mel TMGs, and then co-cultured with 136TILs.
(ELISA stands for enzyme-linked immunosorbent assay.)

This is an account of results in patent US12565680B2, “Cancer neoantigens and their utilities in cancer vaccines and TCR-based cancer immunotherapy” (THE METHODIST HOSPITAL SYSTEM, priority 2018, dated 2026).

With `NC1CC1c1ccccc1` (stereo not shown) [2-PCPA], the “in vivo proliferation of CAR-T cells (in vivo imaging)” value with Raji lymphoma cells is listed as “grew faster than control CAR-T cells”. For the same compound, in the assay with CAR-T cells, the “memory phenotype of CAR-T cells” value is recorded as “similarly increased the frequencies of less-differentiated memory T cells subsets” and the “metabolic reprogramming effect on CAR-T cells” value was “consistent with its effect on A2ESO TCR-T cells”. Further, in the assay with CAR-T cells (IL-2 free condition), the “in vitro survival of CAR-T cells” value is given as “survived better”. Also, in the assay on A2ESO TCR-T cells, the “oxidative metabolism and spare respiratory capacity” value is “increased oxidative metabolism and elevated spare respiratory capacity (SRC)”. In the assay on A2ESO TCR-T cells (8 uM), the “Tscm and Tcm percentages in A2ESO TCR-T cells” value was “increased both Tscm and Tcm percentages”. In addition, in the assay with A2ESO TCR-T cells (ICS for IL-2, IFN-γ and TNF-α), the “frequency of A2ESO TCR-T cells with polyfunctional cytokine secretion” value is “slightly increased”. In addition, the “in vitro survival effect on A2ESO TCR-T cells” value in the assay with A2ESO TCR-T cells (IL-2 free condition) is on record as “not seen”. For the same compound, the “in vitro proliferation (CFSE)” value in the assay on A2ESO TCR-T cells (stimulation with IL-2 or 231-ESO cells) is recorded as “high proliferation potential”. In addition, in assay [1], the “in vivo anti-tumor function of A2ESO TCR-T cells” value is reported as “significantly enhanced”. In addition, in assay [1] (in vivo), the “memory phenotype of T cells after adoptive transfer” value was “maintained higher frequency of both Tscm and Tcm cells”. For the same compound, the “cytolytic activity of CD4^+ TCR-T cells” value in assay [2] was “dramatically enhanced the cytolytic activity”. The “population of Tscm” value in the assay on primary human T cells was “increased the population of Tscm in both CD4^+ and CD8^+ T cells”.
As to TSMLILSNLVFLEGNEVGKTYWNRI [HHAT], in the assay on 136TIL, the “neoantigen-specific CD8^+ T cells in the total T cell population” value is given as 10.6% and the “share in the total tumor-reactive CD8^+ T cell population” value is given as 73%. The “activation of CD8^+ T cell response” value in assay [3] is on record as “HLA-A1 restricted neoantigen”.
